The values that follow come from patent US20220064167A1, “IMIDAZO-PYRAZOLE CARBOXAMIDE DERIVATIVES AS ANTICANCER AGENTS AND THE SYNTHESIS THEREOF” (AVIDIN KFT., priority 2018, published 2022).

The subject of data set [1] is human breast adenocarcinoma cell line, MCF-7. The data set can be described thus: resazurin viability assay, 72 h (Table 1). The format is cell-based. As to conditions: MCF7, 72h incubation, 156 nM-100 μM. The source says:
(§1) In our experiments three different cell lines were used. Cells were purchased from the American Type Culture Collection (ATCC, Manassas, Va., USA). The human breast adenocarcinoma cell line, MCF-7 cells were maintained in Dulbecco's Modified Eagle Medium/Nutrient Mixture F-12 (DMEM/F12) 10% fetal calf serum (FCS, Gibco) and mouse mammary carcinoma 4T1 and human promyelocytic leukemia, HL-60 cells were maintained in Roswell Park Memorial Institute 1640 medium (RPMI-1640) 10% FCS. Media were supplemented with 2 mM GlutaMAX, and 100 U/mL penicillin, 100 μg/mL streptomycin (Life Technologies, Carlsbad, Calif., USA). Cell cultures were maintained at 37° C. in a humidified incubator in an atmosphere of 5% CO2 (Sanyo, Japan).
(§2) For viability assays cells were seeded in 96 well plates (MCF7 and 4T1: 6000, HL60: 120.000 cells/well) and incubated overnight. Compounds were dissolved in dimethyl sulfoxide (DMSO). Cells were treated with an increasing concentration of compounds having the general formula (I.) (156 nM-100 μM). Cell viability was determined after 72h incubation. Resazurin reagent (Sigma-Aldrich) was dissolved in PBS (pH 7.4) at 0.15 mg/ml concentration, sterile filtered (0.22 μm, Merck Millipore) and aliquoted at −20° C. Resazurin reagent (Sigma-Aldrich) was added at a final concentration of 25 μg/ml. After 2 hours incubation at 37° C. 5% CO2 fluorescence (530 nm excitation/580 nm emission) was recorded on a multimode microplate reader (Cytofluor4000, PerSeptive Biosytems). Viability was calculated with relation to untreated control cells and blank wells containing media without cells. IC50 values (50% inhibiting concentration) were calculated by GraphPad Prism® 5 (La Jolla, Calif., USA).

Data set [2] relates to human promyelocytic leukemia, HL-60 cells. The data set can be described thus: resazurin viability assay, 72 h (Table 1). The class given is cell-based. As to conditions: 72h incubation, 156 nM-100 μM.
Text: as §1, §2
(Resazurin is reduced to fluorescent resorufin, in cell work by metabolically active cells.)

Data set [3] relates to mouse mammary carcinoma 4T1. Put plainly: resazurin viability assay, 72 h (Table 1). The format is cell-based. As to conditions: 72h incubation, 156 nM-100 μM.
Text: as §1, §2

Another data set concerns HL-60 cells. The data set can be described thus: resazurin viability assay, Example 103 (FIG. 1). The class given is cell-based. As to conditions: Homo sapiens, 72 h incubation, 20.000 cells/well, read-out: half-inhibitory concentration (IC50) on viability of HL-60 cells. The method, then:
The human primary fibroblasts (6000 cells/well) and Hl60 cells (20.000 cells/well) were seeded into 96-well plates (Corning Life Sciences) in media. Fibroblasts were cultured overnight before treatment. Effects of compounds described in Example 22, 60 and 83 were examined in concentrations of 1 μM, 250 nM, 62.5 nM, 15.6 nM, 3.9 nM and 0.9 nM in 100 μl after 72 h incubation. Resazurin reagent was prepared and used as described in Example 1.
(§3) Viability was calculated with relation to untreated control cells and blank wells containing media without cells. IC50 values (50% inhibiting concentration) were calculated by GraphPad Prism® 5.

The test system of data set [4] is human primary fibroblasts. Put plainly: resazurin viability assay on primary fibroblasts, Example 103 (FIG. 1). The format is cell-based. As to conditions: 72 h incubation, applied concentration range 1.6 nM-5 μM.
Text: To obtain primary human fibroblasts healthy volunteers (age 18-60 years) were enrolled into the study. The punch biopsies were taken from healthy subjects from the breast area undergoing plastic surgery. Primary fibroblasts were obtained from the skin by enzymatic digestion according to a standard protocol. Skin specimens were first washed in Salsol A solution (Human Rt, Gödöllö, Hungary) supplemented with 2% antibiotic/antimycotic solution (Sigma-Aldrich). Skin samples were then cut into narrow strips and incubated in Dispase solution (Roche Diagnostics, Mannheim, Germany) overnight at 4° C. The epidermis was subsequently separated from the dermis. Fibroblasts were obtained by incubating the dermis in Digestion Mix solution (Collagenase, Hyaluronidase and Deoxyribonuclease) for 2h at 37° C. Cell suspensions were filtered through a 100 μm nylon mesh (BD Falcon, San Jose, Calif., USA) and cells were pelleted by centrifugation. Fibroblasts were grown in low glucose DMEM medium containing 5% FBS, 1% antibiotic/antimycotic (PAA, Pasching, Austria) and 1% L-glutamine solution (PAA). Fibroblasts were cultured at 37° C. and 5% CO2 in humidified conditions. Depending on the cell growth, the medium was changed every 2-4 days and cells were passaged at 80% of confluence.
The human primary fibroblasts (6000 cells/well) and Hl60 cells (20.000 cells/well) were seeded into 96-well plates (Corning Life Sciences) in media. Fibroblasts were cultured overnight before treatment. […] Resazurin reagent was prepared and used as described in Example 1.
as §3

In another data set the test system is A375 (human melanoma). The data set can be described thus: viability assay (Table 2). The class given is cell-based. As to conditions: A-375. The method, then:
as §2
(§4) GBM2 (human glioblastoma), HeLa (human cervical carcinoma), MIA PaCa-2 (human pancreas carcinoma) and U87MG (human glioblastoma) cells were maintained in Dulbecco's Modified Eagle Medium (DMEM) 10% fetal calf serum (FCS, Gibco). A375 (human melanoma), A549 (human lung adenocarcinoma) and HEP3B (human hepatoma) cells were maintained in Dulbecco's Modified Eagle Medium/Nutrient Mixture F-12 (DMEM/F12) 10% FCS.
(§5) Media were supplemented with 2 mM GlutaMAX, and 100 U/mL penicillin, 100 μg/mL streptomycin (Life Technologies, Carlsbad, Calif., USA). Cell cultures were maintained at 37° C. in a humidified incubator in an atmosphere of 5% CO2 (Sanyo, Japan).
(§6) Viability assays were performed as described in Example 102.

Data set [5] relates to GBM2 (human glioblastoma). Put plainly: viability assay (Table 2). The class given is cell-based. The procedure:
as §2, §4, §5, §6

The subject of a further data set is HT168 (human melanoma). Put plainly: viability assay (Table 2). The format is cell-based. The procedure:
as §2
HT168 (human melanoma), HT199 (human melanoma), HT29 (human colorectal adenocarcinoma), MOLT4 (human leukemia) and U937 (human lymphoma) cells were maintained in Roswell Park Memorial Institute 1640 medium (RPMI-1640) 10% FCS. SKOV-3 cells were maintained in Dulbecco's Modified Eagle Medium/McCoy's medium (DMEM/McCoy) 10% FCS.
as §5, §6

Regarding `CC(C)(C)CC(C)(C)Nc1c(C(C)(C)C)[nH]c2c(C(N)=O)cnn12` [Example 22, 2-(Tert-butyl)-3-((2,4,4-trimethylpentan-2-yl)amino)-1H-imidazo[1,2-b]pyrazole-7-carbox-amide], the melting point lay within 155 to 156 °C. The molecule further came in with an IC50 in [1] of 1.49 µM. The molecule further displayed an IC50 in [2] of 1240 nM. In addition, the IC50 in data set [3] was 1.88 µM. In the data set on HL-60 cells, the IC50 came out at 940 nM. Also, in data set [4], the “decrease in viability of human primary fibroblasts” value is “Significant decrease in viability was not apparent”. Moreover, in the data set with A375 (human melanoma), the IC50 came out at 2000 nM. In addition, the IC50 in data set [5] turned out to be 5 µM. Besides, in the data set on HT168 (human melanoma), the IC50 worked out at 3000 nM.

Turning to `CC(C)(C)CC(C)(C)Nc1c(C(C)(C)C)[nH]c2c(C(=O)Nc3ccc(F)cc3)cnn12` [Example 50, 2-(Tert-butyl)-N-(4-fluorophenyl)-3-((2,4,4-trimethylpentan-2-yl)amino)-1H-imidazo[1,2-b]pyrazole-7-carboxamide], the melting point came out at 188 °C. The IC50 in [1] is 2.35 µM. The molecule also had an IC50 in [2] of 183 nM. In addition, the IC50 in [3] came out at 7.43 µM.

As for `CC(C)(C)CC(C)(C)Nc1c(C(C)(C)C)[nH]c2c(C(=O)Nc3ccc(Br)cc3)cnn12` [Example 52, N-(4-Bromophenyl)-2-(tert-butyl)-3-((2,4,4-trimethylpentan-2-yl)amino)-1H-imidazo[1,2-b]pyrazole-7-carboxamide], the melting point was 153 to 154 °C. This molecule displayed an IC50 in [1] greater than 50 µM. The same molecule displayed an IC50 in data set [2] of 19700 nM. This molecule gave an IC50 in data set [3] greater than 50 µM.

For `CC(C)(C)CC(C)(C)Nc1c(C(C)(C)C)[nH]c2c(C(=O)Nc3ccc([N+](=O)[O-])cc3)cnn12` [Example 53, 2-(Tert-butyl)-N-(4-nitrophenyl)-3-((2,4,4-trimethylpentan-2-yl)amino)-1H-imidazo[1,2-b]pyrazole-7-carboxamide], the melting point worked out at 199 °C. Besides, the IC50 in [1] is 9.94 µM. This molecule gave an IC50 in [2] of 7640 nM. Besides, the IC50 in [3] amounted to 27.1 µM.

Take `CC(C)(C)CC(C)(C)Nc1c(C(C)(C)C)[nH]c2c(C(=O)Nc3ccc(C#N)cc3)cnn12` [Example 54, 2-(Tert-butyl)-N-(4-cyanophenyl)-3-((2,4,4-trimethylpentan-2-yl)amino)-1H-imidazo[1,2-b]pyrazole-7-carboxamide]: the melting point was determined as 199 °C. The molecule also registered an IC50 in [1] of 9.71 µM. For the same molecule, in data set [2], the IC50 came to 1500 nM. Also, the IC50 in [3] is greater than 50 µM.

`CCOC(=O)c1ccc(NC(=O)c2cnn3c(NC(C)(C)CC(C)(C)C)c(C(C)(C)C)[nH]c23)cc1` [Example 55, Ethyl 4-(2-(tert-butyl)-3-((2,4,4-trimethylpentan-2-yl)amino)-1H-imidazo[1,2-b]pyrazole-7-carbox-amido)benzoate] had a melting point of 127 to 128 °C. In data set [1], this molecule gave an IC50 greater than 50 µM. This molecule showed an IC50 in data set [2] of 8500 nM. In data set [3], the IC50 is greater than 50 µM.

`CSc1ccc(NC(=O)c2cnn3c(NC(C)(C)CC(C)(C)C)c(C(C)(C)C)[nH]c23)cc1` [Example 56, 2-(Tert-butyl)-N-(4-(methylthio)phenyl)-3-((2,4,4-trimethylpentan-2-yl)amino)-1H-imidazo[1,2-b]pyrazole-7-carboxamide] displayed a melting point of 169 to 170 °C. The molecule also showed an IC50 in data set [1] of 21.9 µM. In [2], the IC50 turned out to be 3930 nM. The IC50 in [3] was greater than 50 µM.

In the case of `CN(C)c1ccc(NC(=O)c2cnn3c(NC(C)(C)CC(C)(C)C)c(C(C)(C)C)[nH]c23)cc1` [Example 57, 2-(Tert-butyl)-N-(4-(dimethylamino)phenyl)-3-((2,4,4-trimethylpentan-2-yl)amino)-1H-imidazo[1,2-b]pyrazole-7-carboxamide], the melting point is 176 to 177 °C. Moreover, in data set [1], the IC50 is 10 µM. Further, the IC50 in data set [2] was 297 nM. The same molecule came in with an IC50 in [3] of 11.8 µM.

As for `CC(C)(C)CC(C)(C)Nc1c(C(C)(C)C)[nH]c2c(C(=O)Nc3ccc(F)cc3F)cnn12` [Example 58, 2-(Tert-butyl)-N-(2,4-difluorophenyl)-3-((2,4,4-trimethylpentan-2-yl)amino)-1H-imidazo[1,2-b]pyrazole-7-carboxamide], the melting point was 174 °C. In data set [1], this molecule displayed an IC50 greater than 50 µM. Besides, the IC50 in data set [2] is 628 nM. This molecule also gave an IC50 in data set [3] greater than 50 µM.

`CC(C)(C)CC(C)(C)Nc1c(C(C)(C)C)[nH]c2c(C(=O)Nc3ccc(F)c(F)c3)cnn12` [Example 59, 2-(Tert-butyl)-N-(3,4-difluorophenyl)-3-((2,4,4-trimethylpentan-2-yl)amino)-1H-imidazo[1,2-b]pyrazole-7-carboxamide] yielded a melting point of 162 to 164 °C. In data set [1], this molecule registered an IC50 of 10.3 µM. In data set [2], this molecule returned an IC50 of 2410 nM. This molecule also showed an IC50 in data set [3] of 19 µM.

The term melting point denotes the temperature of the solid-liquid transition.
